According to patent US20230392140A1, “REVERSE TRANSCRIPTION OF POLYNUCLEOTIDES COMPRISING UNNATURAL NUCLEOTIDES” (Synthorx, Inc., priority 2020, published 2023):
Read-outs that look alike come from different tables or passages of the source.

Experiments:
[1] = test system: SuperScript III reverse transcriptase; details: 10 ng RNA per reaction, replicate 1, unnatural dNTP supplied, 55 C
E. coli SSO [2] = assay: T-RT retention of sfGFP mRNA extracted from SSO in vivo translation experiments; format: cell-based; set-up: unit of the concentration uncertain; details: for T-RT retention: mRNA sfGFP(GXT), n = 3
Protocol: (§1) Reverse transcription. The reverse transcription reactions were conducted according to the manufacturer's instructions of each reverse transcriptase with the following modifications. In all reverse transcription reactions, 1 μg mRNA or 20 ng tRNA, 0.5 mM dNTP and 0.2 mM dNaMTP or dTPT3TP per 20 μL reaction were used unless stated otherwise. For SuperScript III (18080044, ThermoFisher), reactions were incubated at 55° C. for 45 min, inactivated at 70° C. for 15 min, followed by RNase H (M0297S, New England Biolabs, (NEB)) and RNase A (R1253, ThermoFisher) digestion. For SuperScript IV (18090010, ThermoFisher), reactions were incubated at 55° C. for 20 min, inactivated at 80° C. for 10 min, followed by RNase H, RNase A, and Proteinase K (P8107S, New England Biolabs, (NEB)) digestion. For AMV reverse transcriptase (M0277S, New England Biolabs, (NEB)), reactions were incubated at 42° C. for 60 min, inactivated at 80° C. for 5 min, followed by RNase H and RNase A digestion. After digestion, 10 μL of each reaction mixture was denatured with RNA loading dye (B0363S, New England Biolabs, (NEB)) and subjected to 10% denaturing polyacrylamide gel electrophoresis with 8 M urea (CAS 57-13-6, Sigma Aldrich) for cDNA detection. The other 10 μL of the reaction mixture was purified using a commercial RNA purification kit (D7011, Zymo Research; Irvine, CA) and the product cDNA was quantified using Qubit.
(§2) SSO in vivo translation. A 2 mL overnight culture of YZ3+pGEX-MbPylRS TetR cells in 2×YT (Y2377, Sigma Aldrich) supplemented with 50 mM potassium phosphate (CAS 7778-77-0, Sigma Aldrich), 5 μg/mL chloramphenicol (CAS 56-75-7, Sigma Aldrich) and 100 μg/mL carbenicillin (C1613, Sigma Aldrich) (herein afterward referred to in this section as “media”) was diluted to an OD600 of 0.03 in the same media, and grown to an OD600 of 0.3 to 0.4. The culture was rapidly cooled in an ice water bath for 5 min with shaking, and then pelleted at 3,200×g for 10 min. Cells were next washed twice with one culture volume of pre-chilled autoclaved Milli-Q H2O. Cells were then resuspended in additional chilled H2O, to an OD600 of 50-60. For each sample tested, 50 μL of the resulting electrocompetent cells were combined with 0.5 ng of Golden Gate assembled plasmid containing the UBP embedded within the sfGFP and tRNA^Pyl genes and then transferred to a pre-chilled electroporation cuvette (0.2 cm gap). Cells were electroporated (Gene Pulser II; Bio-Rad) according to the manufacturer's instructions for bacteria ([…], 2.5 μF, and 200Ω resistor), then immediately diluted with 950 μL of pre-warmed media. 10 μL of this dilution was then diluted with pre-warmed media to a final volume of 50 μL, supplemented with […] and 10 μM dTPT3TP. The transformation was allowed to recover at 37° C. for 1 h. The recovery culture was plated on solid media supplemented with 50 μg/mL zeocin (R25001, ThermoFisher), 150 μM dNaMTP, 10 μM dTPT3TP, and 2% w/v agar, then allowed to grow at 37° C. overnight.
(§3) Single colonies were isolated and used to inoculate 300 μL liquid media supplemented with 50 μg/mL zeocin (herein afterward referred to in this section as “growth media”) and provided 150 μM dNaMTP, and 10 μM dTPT3TP, then monitored for cell growth via OD600 using an Envision 2103 Multilabel Plate Reader (Perkin Elmer) with a 590/20 nm filter. Cells were collected at an OD600 of ˜0.7, and then an aliquot (100 μL) was subjected to miniprep. Isolated plasmids were subjected to biotin shift assay to determine UBP retention. […] At an OD600 of cultures were supplemented with 250 μM NaMTP and 30 μM TPT3TP unless stated otherwise, as well as 10 mM of the ncAA N6-(2-azidoethoxy)-carbonyl-L-lysine (AzK). The culture was then grown for and additional 20 min before adding IPTG (CAS 367-93-1, Sigma Aldrich) to a concentration of 1 mM and grown for 1 h to induce the transcription of the T7 RNA polymerase, the tRNA^Pyl, and the PylRS. […]

E. coli SSO [3] = assay: T-RT retention of M. mazei tRNA extracted from SSO in vivo translation experiments; format: cell-based; set-up: unit of the concentration uncertain; details: for T-RT retention: tRNA(AYC), n = 3
Protocol: as §1, §2, §3

For M. mazei tRNA with TPT3 anticodon, the activity (full-length product ratio) ([1]; TPT3 ribonucleotide at second nucleotide of anticodon, 0.4423 at 500 ng) was 0.917.

Work on M. mazei tRNA with NaM anticodon yielded an activity (full-length product ratio) ([1]; NaM ribonucleotide at second nucleotide of anticodon, 0.8789 at 500 ng) of 0.973.

With `COc1cc2ccccc2cc1[C@@H]1O[C@H](COP(=O)(O)OP(=O)(O)OP(=O)(O)O)[C@@H](O)[C@H]1O` [NaMTP] the “retention of NaM in the mRNA as NaMTP concentration was decreased” value (E. coli SSO [2]; TPT3TP held constant at 250 µM, until NaMTP dropped to less than 50 μM) was “remained high”, the T-RT retention (E. coli SSO [2]; NaMTP concentration 12.5 µM) was 0.70 and the T-RT retention (E. coli SSO [2]; NaMTP concentration 25 µM) was 0.81. For the same compound, the T-RT retention (E. coli SSO [2]; NaMTP concentration 50 µM) was 0.88, the T-RT retention (E. coli SSO [2]; NaMTP concentration 125 µM) was 0.94 and the T-RT retention (E. coli SSO [2]; NaMTP concentration 250 µM) was 0.93.

`O=P(O)(O)OP(=O)(O)OP(=O)(O)OC[C@H]1O[C@@H](n2ccc3ccsc3c2=S)[C@H](O)[C@@H]1O` [TPT3TP] was tested, and the “retention of TPT3 in the tRNA as TPT3TP concentration was varied” value (E. coli SSO [3]; NaMTP held constant at 250 (unit uncertain), even at the lowest concentration examined (10 μM)) was “remained high”, the T-RT retention (E. coli SSO [3]; TPT3TP concentration 12.5 (unit uncertain)) was 0.95 and the T-RT retention (E. coli SSO [3]; TPT3TP concentration 25 (unit uncertain)) was 0.97. The T-RT retention (E. coli SSO [3]; TPT3TP concentration 50 (unit uncertain)) was 0.98, the T-RT retention (E. coli SSO [3]; TPT3TP concentration 125 (unit uncertain)) was 0.95 and the T-RT retention (E. coli SSO [3]; TPT3TP concentration 250 (unit uncertain)) was 0.94.
